Here are results for eight molecules from ChEMBL document CHEMBL1201862, “PubChem BioAssay data set” (2004).

Test systems include MCF7; OVCAR-8; Hs-578T; A549; A498; ACHN; NCI-H522; SK-MEL-28; NCI-H226; T47D; SK-MEL-2; MOLT-4; Malme-3M; U-251; LOX IMVI; K562; DU-145.
Holding throughout (experiment): growth of human tumour cells (NCI), 48 h

Each structure is given as a SMILES string.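 Protocol summary: plate cells (96-well), add compound at 5 concentrations, incubate 48 h, interpolate endpoints linearly. GI50 = concentration required for 50% inhibition of growth.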 The source made the active and inactive calls. No stated cut-off is given here; in the data, active = GI50 up to about 1.1 µM and inactive = higher. Bounds are passed on as bounds.

Regarding `COCCOCCOCCOc1ccc(C(C#N)N(CCc2ccccc2)C(=O)c2cc(C(=O)N(CCc3ccccc3)C(C#N)c3ccc(OCCOCCOCCOC)cc3)cc(C(=O)N(CCc3ccccc3)C(C#N)c3ccc(OCCOCCOCCOC)cc3)c2)cc1` (stereo unspecified), the GI50 was > 100 µM (inactive) in the test with MCF7; > 100 µM (inactive) in the test with OVCAR-8; 54.3 µM (inactive) with Hs-578T; > 100 µM (inactive) in the test with A549; > 100 µM (inactive) with A498; > 100 µM (inactive) in the test on ACHN. Moreover, the GI50 in the test with NCI-H522, with SK-MEL-28, in the test on NCI-H226, with T47D, with SK-MEL-2 and in the test on MOLT-4 was > 100 µM (inactive) throughout. Moreover, the GI50 in the test with Malme-3M, in the test with U-251, in the test on LOX IMVI, in the test on K562 and in the test with DU-145 was > 100 µM (inactive) in each case.
Regarding `O=C1C(S(=O)(=O)c2ccccc2)=C(CS(=O)(=O)c2ccccc2)[C@@H](OCc2ccccc2)[C@@H]1OCc1ccccc1`, the GI50 in the test with MCF7 was 27.4 µM (inactive); with OVCAR-8, 18.5 µM (inactive); in the test with Hs-578T, 23 µM (inactive); in the test with A549, 27.7 µM (inactive); in the test with A498, 23.3 µM (inactive); in the test on ACHN it was 31.8 µM (inactive). For the same molecule, the GI50 with NCI-H522 was 16 µM (inactive); in the test on SK-MEL-28, 18.1 µM (inactive); with NCI-H226, 17.6 µM (inactive); with T47D, 32.7 µM (inactive); in the test on SK-MEL-2, 16.2 µM (inactive); in the test with MOLT-4, 16.9 µM (inactive). Besides, the GI50 in the test with Malme-3M is 17.6 µM (inactive); in the test on U-251, 19.6 µM (inactive); in the test with LOX IMVI it was 15.8 µM (inactive); in the test with K562 it was 14.4 µM (inactive); in the test on DU-145, 35.2 µM (inactive).
In the case of `CC(C)(C)OC(=O)N1CCCC1C(=O)NC(c1ccccc1)c1ccccc1` (stereo unspecified), the GI50 in the test on MCF7, in the test with OVCAR-8, with Hs-578T, with A549, in the test on A498 and in the test with ACHN was > 100 µM (inactive) each time. The GI50 in the test with NCI-H522, with SK-MEL-28, in the test on NCI-H226, in the test on T47D, with SK-MEL-2 and in the test with MOLT-4 was > 100 µM (inactive) in each case. Moreover, the GI50 with Malme-3M, in the test on U-251, with LOX IMVI, in the test on K562 and in the test with DU-145 was > 100 µM (inactive) throughout.
Turning to `COC(=O)CCc1ccc2c(c1)[C@H](C(=O)OC)[C@@H](c1ccc(O)cc1)O2`, the GI50 was 72.9 µM (inactive) in the test with MCF7; > 100 µM (inactive) in the test on OVCAR-8; > 100 µM (inactive) in the test with Hs-578T; > 100 µM (inactive) in the test on A549; > 100 µM (inactive) with A498; > 100 µM (inactive) in the test with ACHN. Moreover, the GI50 with NCI-H522 is 75.9 µM (inactive); in the test on SK-MEL-28 it was > 100 µM (inactive); with NCI-H226 it was 25.5 µM (inactive); with T47D it was 78.2 µM (inactive); with SK-MEL-2 it was > 100 µM (inactive); in the test with MOLT-4, 35.6 µM (inactive). The GI50 in the test on Malme-3M was > 100 µM (inactive); in the test on U-251, > 100 µM (inactive); in the test with LOX IMVI, > 100 µM (inactive); with K562 it was 61.1 µM (inactive); with DU-145, > 100 µM (inactive).
On to `CCCCCC(=O)OCC1(CO)C/C(=C\CC(C(C)C)C(C)C)C(=O)O1` (stereo unspecified), for which the GI50 in the test with MCF7 is 78.7 µM (inactive); in the test on OVCAR-8, 38.1 µM (inactive); in the test on Hs-578T, 24.5 µM (inactive); with A549, 76.9 µM (inactive); in the test on A498, 86.1 µM (inactive); in the test on ACHN, > 100 µM (inactive). Also, the GI50 was 21.9 µM (inactive) in the test on NCI-H522; 59.3 µM (inactive) in the test on SK-MEL-28; 65.5 µM (inactive) with NCI-H226; > 100 µM (inactive) in the test on T47D; > 100 µM (inactive) in the test on SK-MEL-2; 17.9 µM (inactive) in the test on MOLT-4. Further, the GI50 in the test with Malme-3M is 15.3 µM (inactive); with U-251, 25.1 µM (inactive); with LOX IMVI, 27 µM (inactive); in the test on K562 it was 24.1 µM (inactive); with DU-145, > 100 µM (inactive).
With `COC(=O)Nc1nc2ccc(S(=O)(=O)SC)cc2[nH]1`, the GI50 in the test with MCF7 is 4.94 µM (inactive); in the test on OVCAR-8 it was 5.13 µM (inactive); with Hs-578T, 20.5 µM (inactive); in the test with A549 it was 8.11 µM (inactive); in the test with A498, 16.3 µM (inactive); in the test on ACHN it was 10.2 µM (inactive). Further, the GI50 with NCI-H522 is 4.33 µM (inactive); in the test on SK-MEL-28, 8.28 µM (inactive); in the test on NCI-H226, 6.27 µM (inactive); with T47D it was 9.55 µM (inactive); in the test on SK-MEL-2 it was 7.19 µM (inactive); in the test on MOLT-4, 2.89 µM (inactive). The GI50 with Malme-3M is 9.89 µM (inactive); in the test with U-251, 5.51 µM (inactive); in the test with LOX IMVI, 4.78 µM (inactive); in the test on K562, 4.86 µM (inactive); in the test with DU-145, 6.05 µM (inactive).
For the molecule `CC(C)(C)c1ccc(OCCOc2ccc(C(C)(C)C)cc2NC=O)c(NC=O)c1`, the GI50 in the test on MCF7 was 4.7 µM (inactive); with OVCAR-8, 11.8 µM (inactive); in the test with Hs-578T, 12.5 µM (inactive); with A549, 5.73 µM (inactive); in the test with A498, 15.4 µM (inactive); in the test on ACHN, 7.78 µM (inactive). Also, the GI50 was 6.7 µM (inactive) in the test with NCI-H522; 12.3 µM (inactive) with SK-MEL-28; 10.8 µM (inactive) with NCI-H226; 6.01 µM (inactive) with T47D; 14.9 µM (inactive) in the test with SK-MEL-2; 2.79 µM (inactive) in the test with MOLT-4. The GI50 was 8.79 µM (inactive) in the test with Malme-3M; 6.82 µM (inactive) in the test on U-251; 4.5 µM (inactive) in the test on LOX IMVI; 4.14 µM (inactive) with K562; 17.9 µM (inactive) with DU-145.
For `COCCOCCOC1=C(Cl)C(=O)c2c(O)ccc(O)c2C1=O`, the GI50 in the test on MCF7 is 1.97 µM (inactive); in the test on OVCAR-8, 2.21 µM (inactive); with Hs-578T, 3.11 µM (inactive); in the test with A549, 8.02 µM (inactive); in the test on A498, 3.59 µM (inactive); in the test on ACHN it was 1.68 µM (inactive). Also, the GI50 with NCI-H522 was 1.01 µM (active); in the test with SK-MEL-28, 2.33 µM (inactive); with NCI-H226, 18.1 µM (inactive); with T47D it was 2.54 µM (inactive); with SK-MEL-2, 1.17 µM (inactive); in the test with MOLT-4 it was 0.303 µM (active). Moreover, the GI50 is 1.65 µM (inactive) with Malme-3M; 5.16 µM (inactive) in the test with U-251; 1.95 µM (inactive) in the test on LOX IMVI; 1.21 µM (inactive) with K562; 9.31 µM (inactive) in the test on DU-145.
